Like-named read-outs stand apart in the source and are kept apart here.
Legend:
[1] = target: T1, Saccharomyces cerevisiae α-glucosidase (Saccharomyces cerevisiae, UniProt P53341); experiment: biochemical; details: 5 mM pNPG, PBS pH 6.8, 37 °C
T1 construct: purchased Shanghai Yuanye Biotechnology Co., Shanghai, China Lot No. M23HS178879 (catalogue number not given)
Procedure: (§1) The α-glucosidase inhibitory effects of flavonoids were evaluated as in a previous report with slight modifications (including changes in the concentrations of the enzyme, substrate, and Na2CO3). Briefly, 50 μL of phosphate-buffered saline (PBS, 0.1 M, pH 6.8), the test compound, and α-glucosidase (0.2 U/mL) were preincubated in a 96-well plate at 37 °C for 10 min. The reaction was then initiated by adding 50 μL of 5 mM pNPG as the substrate. Subsequently, the 96-well plate was incubated for an additional 30 min at 37 °C, then 50 μL of 0.2 M Na2CO3 was added to terminate the reaction. Absorbance was measured at under 405 nm.

α-glucosidase [2] = target: T2, α-glucosidase (Saccharomyces cerevisiae, UniProt P53341); experiment: Inhibitory kinetic analysis (Lineweaver–Burk plot); format: biochemical; details: Lineweaver–Burk plots, pNPG 0.31–20 mM
T2 construct: purchased Shanghai Yuanye Biotechnology Co., Shanghai, China Lot No. M23HS178879 (catalogue number not given)
T2 sequence (P53341 whole entry): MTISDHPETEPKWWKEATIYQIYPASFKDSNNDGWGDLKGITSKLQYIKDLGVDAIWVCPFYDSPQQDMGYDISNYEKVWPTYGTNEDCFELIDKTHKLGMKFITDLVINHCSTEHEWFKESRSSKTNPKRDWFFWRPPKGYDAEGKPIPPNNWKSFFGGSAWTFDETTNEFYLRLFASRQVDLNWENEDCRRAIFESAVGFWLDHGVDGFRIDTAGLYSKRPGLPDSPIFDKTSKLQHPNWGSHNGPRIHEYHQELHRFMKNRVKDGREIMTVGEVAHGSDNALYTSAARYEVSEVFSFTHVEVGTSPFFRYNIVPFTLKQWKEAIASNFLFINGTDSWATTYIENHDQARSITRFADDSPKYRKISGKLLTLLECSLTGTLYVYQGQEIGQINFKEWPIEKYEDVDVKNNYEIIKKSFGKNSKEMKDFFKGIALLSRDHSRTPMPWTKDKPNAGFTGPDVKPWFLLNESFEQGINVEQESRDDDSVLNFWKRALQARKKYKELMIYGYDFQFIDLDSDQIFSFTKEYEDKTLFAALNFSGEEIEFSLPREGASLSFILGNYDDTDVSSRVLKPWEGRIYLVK
Procedure: The type of inhibition was determined by using the kinetics curve and the Lineweaver–Burk plot. […] These compounds were incubated with α-glucosidase at 37 °C for 30 min. After incubation, various concentrations of pNPG (0.31–20 mM) were added, and absorbance was measured at 405 nm. The Lineweaver–Burk plot was obtained by plotting 1/[S] on the x-axis and 1/v on the y-axis, where [S] represents substrate concentration and v represents the reaction velocity.

α-glucosidase [3] = target: T2, α-glucosidase; experiment: CD spectroscopy, secondary structure of α-glucosidase (BeStSel); details: for β-turn: free enzyme 11.7; for β-sheet: free enzyme 28.8; for random coil: free enzyme 45.2; for α-helix: free enzyme 14.4
Procedure: CD spectra in the far-UV region (190–250 nm) were scanned by using a CD spectrometer (JASCO-1.5 Tokyo, Japan). […] The slit width was set to 1 nm, and the baseline was calibrated with PBS (phosphate buffered saline). CD spectra were averaged over three scans under a constant nitrogen flow, with the buffer signal subtracted. The results were analyzed using the BeStSel database (https://bestsel.elte.hu/index.php, accessed on 16 May 2025).

α-glucosidase [4] = target: T2, α-glucosidase; experiment: biochemical; format: binding; details: for binding to α-glucosidase (SPR): result in words
Procedure: SPR analysis was performed using the Biacore 8K system (GE Healthcare, Uppsala, Sweden). α-Glucosidase (0.05 mg/mL) was fixed on the CM5 sensor chip by an amine coupling kit. Subsequently, various concentrations of the 16 flavonoids dissolved in 5% DMSO were continuously injected onto the surface of α-glucosidase coated surface. After each sample injection, the sensor chip surface was washed and regenerated with running buffer (PBS) at a flow rate of 30 µL/min. According to the 1:1 Langmuir model, the equilibrium dissociation constant (KD) was calculated by the Biacore evaluation software. For sensorgrams without significant kinetic features, the KD values were calculated using the steady-state analysis.

normal C57BL/6J mice = experiment: Oral sucrose test, postprandial blood glucose; format: in vivo; details: for Blood glucose levels: 30 min after sucrose 4 g/kg, n = 8, in mmol/L (unit assumed); for Rate of blood glucose reduction: vs model group, 30 min after sucrose
From the text: Male C57BL/6J mice of SPF grade, aged 6–8 weeks and weighing 18–22 g, were obtained from the Experimental Animal Science Department of Peking University. The mice were housed in a controlled environment with a 12:12 light/dark cycle and a constant temperature. They were provided with standard pellet feed and given free access to drinking water. To ensure acclimatization, the mice were allowed to adjust to the diet and housing conditions for one week prior to the experiment. All animal experiments were performed in compliance with the relevant laws and institutional guidelines for the care and use of laboratory animals in China. The experiments were approved by the Laboratory Animal Management and Ethics Committee of Peking University (LA2021443). Additionally, the certification number for the laboratory animal personnel is 1120111300011.
The 16 flavonoids were subsequently evaluated for their potential antihyperglycemic effects by using the oral sucrose test, which is commonly used to evaluate intestinal α-glucosidase inhibition in vivo [62]. Normal C57BL/6J mice were randomly divided into model groups and the 16 flavonoid compound groups (n = 8 per group), respectively. The flavonoids at different concentrations were suspended in 0.5% sodium carboxymethyl cellulose (CMC-Na). […] Fifteen minutes after drug administration, the mice were given a sucrose solution (4 g/kg). Blood samples were collected from the tail vein at 30 min after sucrose loading, and blood glucose levels were measured using an Accu-Chek Performa glucometer (Roche Diagnostics, SN: 79508621393, Shanghai, China). The rate of blood glucose reduction was calculated using the following Formula (4):(4) The rate of blood glucose reduction%=the model blood glucose-the sample blood glucose/the model blood glucose×100%

α-glucosidase [5] = details: read-out: IC50; cited from earlier work
α-glucosidase [6] = target: T2, α-glucosidase; experiment: Mixture effects of flavonoid combinations on α-glucosidase; format: biochemical; details: calculated from the dose–response curve
Procedure: as §1
The inhibitory activity of the composition was evaluated using the same method described in Section 3.2. […] The combination index (CI, Formula (3)) was subsequently used to assess the interactions between the compounds [60].(2) Y=Bottom+Top−Bottom/1+10^^((LogIC50−X)×HillSlope)
In Formula (3), (D)j represents the concentration of component j in the mixture needed to achieve an effect of x, while (Dx)j denotes the concentration of component j required to produce the same effect when acting alone. Here, x refers to the inhibition rate produced by the composition, and n indicates the number of individual compounds in the composition.

[7] = molar ratio 10:1, α-glucosidase 4 μM
[8] = molar ratio 40:1, α-glucosidase 4 μM
[9] = molar ratio compound:α-glucosidase 10:1, α-glucosidase 4 μM

T1 sequence (P53341 whole entry): as above

| Molecule | IC50 ([1]; IC50, α-glucosidase 0.2 U/mL) | type of inhibition on α-glucosidase (α-glucosidase [2]) | β-turn (α-glucosidase [3]; [7]) | β-sheet (α-glucosidase [3]; [7]) | random coil (α-glucosidase [3]; [7]) | β-turn (α-glucosidase [3]; [8]) | α-helix (α-glucosidase [3]; [8]) | β-sheet (α-glucosidase [3]; [8]) | random coil (α-glucosidase [3]; [8]) | α-helix (α-glucosidase [3]; [9]) | Kd (α-glucosidase [4]) | Blood glucose levels (normal C57BL/6J mice; 10 mg/kg oral) | Rate of blood glucose reduction (normal C57BL/6J mice; 10 mg/kg oral) | Blood glucose levels (normal C57BL/6J mice; 50 mg/kg oral) | Rate of blood glucose reduction (normal C57BL/6J mice; 50 mg/kg oral) | Blood glucose levels (normal C57BL/6J mice; 100 mg/kg oral) | Rate of blood glucose reduction (normal C57BL/6J mice; 100 mg/kg oral) | binding to α-glucosidase (SPR) (α-glucosidase [4]) | IC05 (α-glucosidase [6]) | other results |
| --- | --- | --- | --- | --- | --- | --- | --- | --- | --- | --- | --- | --- | --- | --- | --- | --- | --- | --- | --- | --- |
| Oc1ccc([C@H]2COc3cc(O)ccc3C2)cc1 [C29, equol] | 131 ± 7.65 µM | mixed-type inhibitors | 14.5% | 23.5% | 51.1% | 13.2% | 8.50% | 23.4% | 55.0% | 10.9% | 849 µM | 14.70 ± 1.36 | 8.20% | 13.93 ± 0.62 | 13.04% | 12.56 ± 1.87 | 21.55% |  |  |  |
| CC(=O)Cc1cc(=O)c2c(C)cc(O)c([C@@H]3O[C@H](CO)[C@@H](O)[C@H](O)[C@H]3OC(=O)/C=C/c3ccc(O)cc3)c2o1 [Aloeresin A, reference compound] |  |  |  |  |  |  |  |  |  |  |  |  |  |  |  |  |  |  |  | IC50 (α-glucosidase [5]): 11900 µM |
| COc1ccc(C2COc3cc(O)ccc3C2)c(O)c1OC (stereo not shown) [C17, isomucronulatol] | 354 ± 40.4 µM | mixed-type inhibitors | 11.7% | 24.3% | 49.4% | 13.6% | 17.4% | 31.3% | 37.8% | 14.6% | > 2000 µM | 14.46 ± 0.69 | 6.32% | 14.29 ± 0.80 | 7.45% | 13.24 ± 1.18 | 14.25% | did not show binding |  |  |
| O=C1C[C@@H](c2ccc(O)cc2)Oc2cc(O)ccc21 [C3, liquiritigenin] | 161 ± 36.3 µM | non-competitive inhibitors | 14.2% | 18.0% | 56.1% | 16.2% | 8.00% | 16.6% | 59.2% | 11.7% | > 2000 µM | 14.06 ± 1.45 | -0.90% | 13.19 ± 1.35 | 5.38% | 11.58 ± 1.23 | 16.95% | did not show binding | 13.71 µM |  |
| COc1ccc2c(c1OC)OC1c3ccc(O[C@@H]4O[C@H](CO)[C@@H](O)[C@H](O)[C@H]4O)cc3OCC21 (stereo partly shown) [C19, astrapterocarpan-3-O-glucoside] |  | non-competitive inhibitors | 10.7% | 26.7% | 39.9% | 10.2% | 43.2% | 6.70% | 39.9% | 22.6% |  | 13.71 ± 0.78 | 11.17% |  |  | 13.31 ± 0.58 | 13.77% |  | 82.58 µM | IC50 ([1]; α-glucosidase 0.2 U/mL, read-out: IC50): 348 ± 32.4 µM; Kd (α-glucosidase [4]; kinetic model (1:1 Langmuir), read-out: KD): 30 µM; Blood glucose levels (normal C57BL/6J mice; 1 mg/kg oral): 14.30 ± 1.16; Rate of blood glucose reduction (normal C57BL/6J mice; 1 mg/kg oral): 7.37% |
| aquilarixanthone [reference compound] |  |  |  |  |  |  |  |  |  |  |  |  |  |  |  |  |  |  |  | IC50 (α-glucosidase [5]): 678 µM |
| O=C(/C=C/c1ccc(O)cc1)c1ccc(O)cc1O [C4, isoliquiritigenin] | 69.1 ± 10.7 µM | mixed-type inhibitors | 11.7% | 31.0% | 42.3% | 12.1% | 14.1% | 24.1% | 49.7% | 15.0% | > 2000 µM | 12.81 ± 1.00 | 8.07% | 13.05 ± 1.44 | 6.37% |  |  | did not show binding | 9.73 µM | IC15 (concentration corresponding to a 15% inhibition rate) (α-glucosidase [6]): 20 µM; Blood glucose levels (normal C57BL/6J mice; 250 mg/kg oral): 11.90 ± 0.62; Rate of blood glucose reduction (normal C57BL/6J mice; 250 mg/kg oral): 14.62% |

Source: article PMC12114633, “α-Glucosidase Inhibition Mechanism and Anti-Hyperglycemic Effects of Flavonoids from Astragali Radix and Their Mixture Effects” (Pharmaceuticals, 2025)
